Measurements taken from patent publication US7846944B2, “Pyrazolo-pyridinone compounds and methods of use thereof” (Amgen Inc., priority 2007, dated 2010).
Where two headings read alike, the source gives them in different places.

Key:
recombinant human p38α = recombinant human p38α (Homo sapiens, UniProt Q16539); assay: Purified and activated recombinant human p38α HTRF kinase assay; assay type: biochemical; settings: 1 nM p38α, 50 μM ATP, GST-ATF2 substrate, read-out: p38a IC50
Description: Purified and Activated Recombinant Human p38α Assay
• Kinase Reaction Buffer: Kinase reaction buffer for p38α HTRF assays consists of 50 mM Tris-pH 7.5, 5 mM MgCl2, 0.1 mg/mL BSA, 100 μM Na3VO4 and 0.5 mM DTT. • HTRF Detection Buffer: HTRF detection buffer contains 100 mM HEPES-pH 7.5, 100 mM NaCl, 0.1% BSA, 0.05% Tween-20, and 10 mM EDTA. • Serial Dilution of Compounds: Compounds were dissolved in 100% DMSO and serially diluted (3 fold, 10 point) in a polypropylene 96-well microtiter plate (drug plate). The final starting concentration of compounds in the p38α enzymatic assays was 1 μM. Columns 6 and 12 (HI controls and LO controls respectively) in the drug plate were reserved as controls and contained only DMSO. • Kinase Reaction The p38α kinase reactions were carried out in a polypropylene 96-well black round bottom assay plate in total volume of 30 μL kinase reaction buffer. Appropriate concentration of purified and activated enzyme (recombinant human) was mixed with indicated concentration of ATP and 100 nM GST-ATF2-Avitag, in the presence or absence (HI control) of Compound. See table below for actual concentrations. In the absence of substrate, the background was measured as LO control. The reaction was allowed to incubate for 1 hour at RT. • Assay Reagent Concentrations: The final reagent concentrations were 1 nM p38α and 50 μM ATP. […] After 60 minutes incubation at room temperature, the assay plate was read in a Discovery Plate Reader. The wells were excited with coherent 320 nm light and the ratio of delayed ([…] post excitation) emissions at […] (native europium fluorescence) and 665 nm (europium fluorescence transferred to allophycocyanin—an index of substrate phosphorylation) was determined (Park et al, 1999). • Data Analysis: The proportion of substrate phosphorylated in the kinase reaction in the presence of compound compared with that phosphorylated in the presence of DMSO vehicle alone (HI control) was calculated using the formula: % control (POC)=(compound−average LO)/(average HI−average LO)*100. Data (consisting of POC and inhibitor concentration in μM) was fitted to a 4-parameter equation (y=A+((B−A)/(1+((x/C)^D))), where A is the minimum y (POC) value, B is the maximum y (POC), C is the x (compound concentration) at the point of inflection and D is the slope factor, using a Levenburg-Marquardt non-linear regression algorithm.
The inhibition constant (Ki) of the inhibitor was estimated from the IC50 (compound concentration at the point of inflection C) using the Cheng-Prussof equation: Ki=IC50/(1+S/Km), where S is the ATP substrate concentration, and Km is the Michaelis constant for ATP as determined experimentally. All results were expressed as the mean±the standard error of the mean. Data acquisition and non-linear regression algorithms were performed using Activity Base v5.2 and XL-fit software v4.1 respectively. All data was archived using Activity Base v5.2 software.

[1] = tested on: secreted IL-8 by whole blood activated with TNF-α; assay: Inhibition of TNF-α induced IL-8 in 50% human whole blood; assay type: cell-based; settings: Homo sapiens, TNF-α (1 nM) induced IL-8, 50% human whole blood; read-out: WB TNF/IL8 IC50
Description: Inhibition of TNF-α Induced IL-8 in 50% Human Whole Blood
Test compounds were evaluated in vitro for the ability to inhibit the production of secreted IL-8 by whole blood activated with TNF-α. Fresh human whole blood was obtained from healthy, non-medicated volunteers in sodium heparin tubes.
Compound Dilution—Assay Procedure
100 ul heparinized whole blood is plated into wells of 96 well flat bottom plates. 50 ul of either 4× compound or DMSO control (Final DMSO concentration is 0.1%) are added to the appropriate wells. Plates are incubated for 1 hour at 37 degrees Celsius. 50 ul of 4×TNF-α ([…], for a final concentration of 1 nM) or control (media alone) is added to the appropriate wells (Total volume=200 ul). Plates are incubated overnight (16-18 hours). 100 ul of supernatant is collected and stored in 96-well round bottom polypropylene plates at −80 degrees Celsius or assayed immediately for IL-8.
Cytokines are measured on antibody (Ab) sandwich ECL based 96-well detection plates. 20 ul of supernatant are added to plate and plate is sealed and shaken at RT for 1 hour. 130 ul of detection Ab cocktail is added and plates are sealed and shaken for 1 hour in the dark at RT. Plates are read on MSD Sector HTS instrument. Data are analyzed and IC50 values generated using Activity Base and XI-fit programs.

[2] = tested on: TNF-α secretion by LPS-treated THP1 cells; assay: Lipopolysaccharide-activated THP1 cell TNF production assay; assay type: cell-based; settings: Homo sapiens, read-out: IC50 in the THP-1 cellular TNF production assay
[3] = tested on: production of IL-1β, IL-6, and TNF-α by PBMC activated with LPS; assay: Lipopolysaccharide-activated PBMC cytokine production assay; assay type: cell-based; settings: read-out: IC50 in the whole blood PMBC assay
Description: Lipopolysaccharide-Activated PBMC Cytokine Production Assay
Test compounds were evaluated in vitro for the ability to inhibit the production of IL-1β, IL-6, and TNF-α by PBMC activated with bacterial lipopolysaccharide (LPS). Fresh leukocytes were obtained from a local blood bank, and peripheral blood mononuclear cells (PBMCs) were isolated by density gradient centrifugation on Ficol-Paque Plus (Pharmacia).
Preparation of Test Compound Stock Solutions
All reagents were prepared in RPMI 1640+10% v/v human AB serum+1×Pens/Strep/Glu (assay medium). Test compounds were dissolved in 100% DMSO and serially diluted in 96-well polypropylene round bottom micro titer plates (drug plate). Serial dilutions were then diluted 1:250 into assay medium to a 4× working concentration. Compound serial dilutions were half-log, 10 point titrations with a final starting concentration of 1 μM.
Treatment of Cells with Test Compounds and Activation with Lipopolysaccharide
LPS was prepared to a 4× concentration in assay medium. 100 μl of PBMC (1×10^6 cells/ml) were plated in a 96-well polystyrene flat bottom micro titer tissue culture plate and incubated with 50 μl of 4× compound serial dilution for 1 hour at 37° C., 5% CO2 in a tissue culture incubator. 50 μl 4×LPS or control was added and the plates were incubated at 37° C., 5% CO2 in a tissue culture incubator for 18 hours. The final DMSO concentration was 0.1%. The total volume was 200 μL. The final LPS concentration was 100 ng/mL. After 18 hours culture supernatants were removed and IL-1β, IL-6, and TNF-α presence in the supernatants was quantified using MSD ECL based technology.
Cytokine Measurements 20 μL of culture supernatant were added to MSD plates, and incubated for one hour at room temperature. 20 μL of detection antibody diluted in antibody diluent (1 μg/mL), and 110 μL of 2× Read Buffer P was added, and incubated for one hour at RT. Electrochemiluminescence was measured using the SECTOR HTS Imager (MSD, Gaithersburg, Md.). Data Analysis
Compound IC50 values were calculated as follows: The proportion of cytokine production in the presence of compound compared to the cytokine production in the presence of the DMSO vehicle alone (Hi control) was calculated using the formula: Percent Control (POC)=(compound−average Lo)/(average Hi−average Lo)*100.

[4] = tested on: Collagen-Induced Arthritis (CIA) Model in Rats; assay: Collagen-induced arthritis (CIA) model in rats; assay type: in vivo; settings: 168 h; rat, treated for 7 days from onset of arthritis
Description: Collagen-Induced Arthritis (CIA) Model in Rats
Porcine type II collagen (10 mg) was dissolved in 0.1N acetic acid (5 mL) two days prior to use on a rotating plate in the refrigerator. Subsequently, collagen was emulsified 1:1 with Freund's incomplete adjuvant using an emulsification needle and glass syringes yielding a final concentration of 1 mg/mL.
Disease was induced in each animal by intradermal injection of emulsified collagen in IFA at 10 different sites (100 μL per site) over the back. […] At onset (defined as Day 0), rats were randomized to treatment groups and therapy was initiated with drug or vehicle control as noted in table above. Rats were treated for 7 days and were sacrificed on Day 8.

[5] = THP-1, LPS, 3 hours, THP1 cells
[6] = LPS 100 ng/mL, 18 hours, IL-1β, IL-6, TNF-α

recombinant human p38α, sequence (Q16539 whole entry): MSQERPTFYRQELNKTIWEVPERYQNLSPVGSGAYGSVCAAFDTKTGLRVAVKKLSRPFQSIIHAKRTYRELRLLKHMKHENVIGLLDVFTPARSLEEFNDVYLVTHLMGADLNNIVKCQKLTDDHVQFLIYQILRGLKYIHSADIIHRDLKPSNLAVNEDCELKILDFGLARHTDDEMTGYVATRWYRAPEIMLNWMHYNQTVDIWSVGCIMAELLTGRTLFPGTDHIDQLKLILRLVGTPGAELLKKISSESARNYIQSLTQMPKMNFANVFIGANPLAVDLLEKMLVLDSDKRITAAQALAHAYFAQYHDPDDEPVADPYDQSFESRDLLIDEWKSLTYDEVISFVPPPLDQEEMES

| SMILES | IC50 (recombinant human p38α) [nM] | IC50 [1] [nM] | IC50 [2, 5] [nM] | IC50 [3, 6] [nM] | IC50 ([3]; 18 h) [nM] | IC50 ([2]; THP-1, 3 h) [nM] | ED50 [4] [mg/kg] |
| --- | --- | --- | --- | --- | --- | --- | --- |
| COc1ccc(C(F)(F)F)cc1NC(=O)c1ccc(C)c(-c2cc3cnn(-c4c(F)cccc4F)c3n(C)c2=O)c1 [Example 45, 3-(1-(2,6-difluorophenyl)-7-methyl-6-oxo-6,7-dihydro-1H-pyrazolo[3,4-b]pyridin-5-yl)-4-methyl-N-(2-(methyloxy)-5-(trifluoromethyl)phenyl)benzamide] | 7.8 | ≥ 2500 | ≤ 175 | – | – | – | – |
| Cc1ccc(C(=O)NC2CC2)cc1-c1cc2cnn(-c3ccccc3Cl)c2n(C)c1=O [Example 12, 3-(1-(2-chlorophenyl)-7-methyl-6-oxo-6,7-dihydro-1H-pyrazolo[3,4-b]pyridin-5-yl)-N-cyclopropyl-4-methylbenzamide] | 1.8 | – | ≤ 175 | ≤ 125 | – | – | – |
| Cc1c(F)cc(C(=O)NC2CC2)cc1-c1cc2cnn(-c3ccccc3Cl)c2n(C)c1=O [Example 8, 3-(1-(2-chlorophenyl)-7-methyl-6-oxo-6,7-dihydro-1H-pyrazolo[3,4-b]pyridin-5-yl)-N-cyclopropyl-5-fluoro-4-methylbenzamide] | 2.3 | – | ≤ 175 | ≤ 125 | – | – | – |
| Cc1c(F)cc(C(N)=O)cc1-c1cc2cnn(-c3c(F)cccc3F)c2n(C)c1=O [Example 31, 3-(1-(2,6-difluorophenyl)-7-methyl-6-oxo-6,7-dihydro-1H-pyrazolo[3,4-b]pyridin-5-yl)-5-fluoro-4-methylbenzamide] | 1 | – | ≤ 175 | ≤ 125 | – | – | – |
| Cc1ccc(C(=O)NC2CC2)cc1-c1cc2cnn(-c3ccc(F)cc3F)c2n(C)c1=O [Example 13, N-cyclopropyl-3-(1-(2,4-difluorophenyl)-7-methyl-6-oxo-6,7-dihydro-1H-pyrazolo[3,4-b]pyridin-5-yl)-4-methylbenzamide] | – | – | – | – | ≤ 125 | ≤ 175 | 0.02 |
| Cc1c(F)cc(C(=O)NC2CC2)cc1-c1cc2cnn(-c3c(F)cccc3F)c2n(C)c1=O [Example 2, N-cyclopropyl-3-(1-(2,6-difluorophenyl)-7-methyl-6-oxo-6,7-dihydro-1H-pyrazolo[3,4-b]pyridin-5-yl)-5-fluoro-4-methylbenzamide] | 1.8 | – | ≤ 175 | ≤ 125 | – | – | – |
| Cc1ccc(C(=O)O)cc1-c1cc2cnn(-c3c(F)cccc3F)c2n(C)c1=O [Example 38, 3-(1-(2,6-difluorophenyl)-7-methyl-6-oxo-6,7-dihydro-1H-pyrazolo[3,4-b]pyridin-5-yl)-4-methylbenzoic acid] | 704 | ≥ 2500 | – | – | – | – | – |
| Cc1ccc(C(=O)O)cc1-c1cc2cnn(-c3ccc(F)cc3F)c2n(C)c1=O [Example 41, 3-(1-(2,4-difluorophenyl)-7-methyl-6-oxo-6,7-dihydro-1H-pyrazolo[3,4-b]pyridin-5-yl)-4-methylbenzoic acid] | 1000 | ≥ 2500 | ≤ 175 | – | – | – | – |
| Cc1c(F)cc(C(=O)Nc2ccon2)cc1-c1cc2cnn(-c3c(F)cccc3F)c2n(C)c1=O [Example 3, 3-(1-(2,6-difluorophenyl)-7-methyl-6-oxo-6,7-dihydro-1H-pyrazolo[3,4-b]pyridin-5-yl)-5-fluoro-N-3-isoxazolyl-4-methylbenzamide] | 2.4 | – | ≤ 175 | ≤ 125 | – | – | – |
| Cc1ccc(C(=O)NC2CC2)cc1-c1cc2cnn(-c3c(F)cccc3F)c2n(C)c1=O [Example 7, N-cyclopropyl-3-(1-(2,6-difluorophenyl)-7-methyl-6-oxo-6,7-dihydro-1H-pyrazolo[3,4-b]pyridin-5-yl)-4-methylbenzamide] | – | – | ≤ 175 | ≤ 125 | – | – | 0.01 |
| Cc1ccc(C(N)=O)cc1-c1cc2cnn(-c3c(F)cccc3F)c2n(C)c1=O [Example 44, 3-(1-(2,6-difluorophenyl)-7-methyl-6-oxo-6,7-dihydro-1H-pyrazolo[3,4-b]pyridin-5-yl)-4-methylbenzamide] | 3.4 | – | ≤ 175 | ≤ 125 | – | – | 0.07 |
| Cc1ccc(C(=O)Nc2ccon2)cc1-c1cc2cnn(-c3ccc(F)cc3F)c2n(C)c1=O [Example 27, 3-(1-(2,4-difluorophenyl)-7-methyl-6-oxo-6,7-dihydro-1H-pyrazolo[3,4-b]pyridin-5-yl)-N-3-isoxazolyl-4-methylbenzamide] | 2.4 | – | ≤ 175 | ≤ 125 | – | – | – |
